Assay results as given in patent US7510836B2, “Alpha arteether resistance domain” (priority 2003, dated 2009).
≈ marks a conversion by molar mass, not a printed value.

Legend:
Experiment in all cases: Minimum inhibitory concentration (cross resistance)
Assay type in all cases: cell-based
E. coli ET8000 = settings: Escherichia coli; strain ET8000
From the text: (§1) The minimum inhibitory concentrations (MIC) of the quinolone and fluoroquinolone antibiotics were quantified for different strains and compared among each other. The differential response indicate the measure of resistance and sensitivity. Higher MIC indicate more resistance.

E. coli CA8000 = settings: Escherichia coli; strain CA8000
From the text: as §1

E. coli DH5a = settings: Escherichia coli; strain DH5a
From the text: as §1

E. coli NK5819 = settings: Escherichia coli; strain NK5819
From the text: as §1

E. coli mutant CA8005 = settings: Escherichia coli; strain CA8005
From the text: (§2) In order to develop an arteether resistant mutants from an arteether sensitive strains a reverse strategy was applied. Quinoline/fluoroquinolone (Q/FQs) resistant strains were developed spontaneously i.e. screening overnight log phase culture of the Quinolone/fluoroquinolone sensitive i.e. arteether resistant strain (E coli CA 8000) on the poison agar plate of the Q/FQs. The Q/FQ resistant mutants which appeared on the poison agar plates were first purified through single colony purification and then checked for their arteether sensitivity. These arteether sensitive mutants on the contrary when checked for their Q/Fqs resistance they show different level of Q/FQs resistance.
as §1

E. coli mutant CA8007 = settings: Escherichia coli; strain CA8007
From the text: as §2, §1

E. coli mutant CA8001 = settings: Escherichia coli; strain CA8001
From the text: as §2, §1

E. coli mutant CA8006 = settings: Escherichia coli; strain CA8006
From the text: as §2, §1

E. coli mutant CA8003 = settings: Escherichia coli; strain CA8003
From the text: as §2, §1

E. coli mutant CA80012 = settings: Escherichia coli, read-out: minimum inhibitory concentration (MIC)
From the text: as §2, §1

E. coli mutant CA80010 = settings: Escherichia coli, read-out: minimum inhibitory concentration (MIC)
From the text: as §2, §1

E. coli mutant CA8002 = settings: Escherichia coli; strain CA8002
From the text: as §2, §1

E. coli mutant CA8009 = settings: Escherichia coli; strain CA8009
From the text: as §2, §1

O=C(O)c1cn(C2CC2)c2cc(N3CCNCC3)c(F)cc2c1=O [Ciprofloxacin]
MIC (E. coli ET8000): 0.5 µg/mL (≈ 1.51 µM)
MIC (E. coli CA8000): < 0.05 µg/mL
MIC (E. coli DH5a): 0.1 µg/mL (≈ 0.302 µM)
MIC (E. coli NK5819): < 0.1 µg/mL
MIC (E. coli mutant CA8005): 0.1 µg/mL (≈ 0.302 µM)
MIC (E. coli mutant CA8007): 0.1 µg/mL (≈ 0.302 µM)
MIC (E. coli mutant CA8001): < 0.1 µg/mL
MIC (E. coli mutant CA8006): 0.1 µg/mL (≈ 0.302 µM)
MIC (E. coli mutant CA8003): < 0.1 µg/mL
MIC (E. coli mutant CA80012): 0.1 µg/mL (≈ 0.302 µM)
MIC (E. coli mutant CA80010): 0.1 µg/mL (≈ 0.302 µM)
MIC (E. coli mutant CA8002): < 0.1 µg/mL
MIC (E. coli mutant CA8009): 0.1 µg/mL (≈ 0.302 µM)
